Experimental data published in paper PMC5063830, “Design and synthesis of chalcone derivatives as potential non-purine xanthine oxidase inhibitors” (SpringerPlus, 2016).

Columns and labels:
xanthine oxidase = xanthine oxidase (Bos taurus, UniProt P80457); experiment: Assessment of xanthine oxidase inhibitory activity (spectrophotometric, 290 nm); type: biochemical; conditions: for IC50: 150 μM xanthine, 70 mM phosphate buffer pH 7.5, 25 °C, mean of four determinations, read-out: XO inhibitory activity IC50
Procedure: The assay mixture consisting of 50 μL of test solution, 35 μL of 70 mM phosphate buffer (pH 7.5), and 30 μL of enzyme solution (0.01 units/mL in 70 mM phosphate buffer, pH 7.5) was prepared immediately before use. […] The reaction was stopped by adding 25 μL of HCl 1 N, and the absorbance at 290 nm was measured with a Shimadzu UV-1800. […] XO inhibitory activity was expressed as the percentage inhibition of XO in the above assay system, calculated as (1 − B/A) × 100, where A and B are the activities of the enzyme without and with the test material. IC50 values were calculated from the mean values of data from four determinations.

xanthine oxidase, sequence (P80457 2-1332 limits assumed): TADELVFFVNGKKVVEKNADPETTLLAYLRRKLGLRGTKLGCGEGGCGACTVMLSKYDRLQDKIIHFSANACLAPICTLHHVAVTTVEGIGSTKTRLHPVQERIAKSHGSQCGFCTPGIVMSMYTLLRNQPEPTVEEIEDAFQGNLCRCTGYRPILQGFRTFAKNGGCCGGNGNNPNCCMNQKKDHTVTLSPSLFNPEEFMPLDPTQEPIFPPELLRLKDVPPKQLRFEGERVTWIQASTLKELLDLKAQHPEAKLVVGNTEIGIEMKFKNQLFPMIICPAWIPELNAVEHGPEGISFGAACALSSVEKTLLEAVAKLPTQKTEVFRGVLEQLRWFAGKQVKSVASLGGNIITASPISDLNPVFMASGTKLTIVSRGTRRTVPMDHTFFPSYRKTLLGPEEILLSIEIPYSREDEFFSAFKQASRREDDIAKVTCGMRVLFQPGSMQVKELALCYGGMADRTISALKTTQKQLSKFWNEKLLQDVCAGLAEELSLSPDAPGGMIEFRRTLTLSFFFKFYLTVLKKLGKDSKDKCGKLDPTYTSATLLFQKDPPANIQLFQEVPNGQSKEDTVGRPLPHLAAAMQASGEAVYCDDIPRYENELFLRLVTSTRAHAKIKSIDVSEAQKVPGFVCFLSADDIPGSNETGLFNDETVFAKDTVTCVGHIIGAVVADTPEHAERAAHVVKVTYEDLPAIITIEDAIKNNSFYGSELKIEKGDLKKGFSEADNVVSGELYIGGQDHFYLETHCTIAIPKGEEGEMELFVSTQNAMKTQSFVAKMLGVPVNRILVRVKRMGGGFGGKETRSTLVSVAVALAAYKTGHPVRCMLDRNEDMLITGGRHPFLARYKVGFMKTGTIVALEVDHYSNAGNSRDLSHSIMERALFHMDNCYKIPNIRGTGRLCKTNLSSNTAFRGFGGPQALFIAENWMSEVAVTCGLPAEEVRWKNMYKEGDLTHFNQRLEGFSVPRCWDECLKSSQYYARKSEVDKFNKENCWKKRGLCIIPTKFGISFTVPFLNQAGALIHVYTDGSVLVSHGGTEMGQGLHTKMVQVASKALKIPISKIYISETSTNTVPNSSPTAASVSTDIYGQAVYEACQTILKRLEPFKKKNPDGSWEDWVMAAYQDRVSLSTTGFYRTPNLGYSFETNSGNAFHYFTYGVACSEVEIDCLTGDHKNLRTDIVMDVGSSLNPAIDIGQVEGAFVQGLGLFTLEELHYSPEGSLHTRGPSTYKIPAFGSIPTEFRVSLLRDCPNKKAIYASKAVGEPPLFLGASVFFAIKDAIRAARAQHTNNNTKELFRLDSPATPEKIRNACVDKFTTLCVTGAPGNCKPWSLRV

Row | IC50 (xanthine oxidase) | XO inhibitory activity (in words) (xanthine oxidase) | Structure (SMILES) | melting point
1 | 16.3 µM |  | O=C(/C=C/c1ccc(O)cc1O)c1ccc(O)cc1O [Compound 6, 2,4,2′,4′-tetrahydroxychalcone] | 
2 | > 100 µM |  | COc1ccc(C(=O)/C=C/c2ccc(OC)c(OC)c2)c(O)c1 [Compound 16, 2ʹ-hydroxy-3,4,4ʹ-trimethoxychalcone] | 
3 | 2.5 µM |  | COc1ccc(C(=O)/C=C/c2ccc(O)c(O)c2)c(OC)c1 [Compound 11, 3,4-dihydroxy-2ʹ,4ʹ-dimethoxychalcone] | 
4 | 2.4 µM | most potent active | COc1ccc(C(=O)/C=C/c2ccc(O)c(O)c2)c(O)c1C(=O)/C=C/c1ccc(O)c(O)c1 [Compound 13, 3ʹ-caffeoyl-3,4,2ʹ-trihydroxy-4ʹ-methoxychalcone] | 200 to 201 °C
5 | 40.9 µM |  | O=C(/C=C/c1ccc(O)c(O)c1)c1ccccc1 [Compound 3, 3,4-dihydroxychalcone] | 
6 | 21.8 µM |  | COc1ccc(/C=C/C(=O)c2ccc(O)cc2O)c(O)c1 [Compound 12, 2,2ʹ,4ʹ-trihydroxy-4-methoxychalcone] | 
7 | 19.2 µM |  | COc1ccc(C(=O)/C=C/c2ccc(O)c(O)c2)c(O)c1 [Compound 10, 3,4,2ʹ-trihydroxy-4ʹ-methoxychalcone] | 
8 | 36.7 µM |  | COc1ccc(/C=C/C(=O)c2ccc(O)cc2O)cc1O [Compound 8, 3,2ʹ,4ʹ-trihydroxy-4-methoxychalcone] | 
9 | > 100 µM | do not show activity | O=C(/C=C/c1ccccc1)c1ccc(O)cc1O [Compound 4, 2′,4′-dihydroxychalcone] | 
10 | > 100 µM |  | COc1ccc(/C=C/C(=O)c2ccc(O)cc2O)cc1OC [Compound 9, 2ʹ,4ʹ-dihydroxy-3,4-dimethoxychalcone] | 
11 | 4.3 µM |  | O=C(/C=C/c1ccc(O)c(O)c1)c1ccc(O)cc1O [Compound 5, 3,4,2ʹ,4ʹ-tetrahydroxychalcone] | 
12 | > 100 µM |  | COc1ccc(/C=C/C(=O)c2ccccc2)cc1O [Compound 14, 3-hydroxy-4-methoxychalcone] | 
13 | > 100 µM |  | COc1ccc(/C=C/C(=O)c2ccccc2)cc1OC [Compound 15, 3,4-dimethoxychalcone] | 

Row | Structure (SMILES) | IC50 (xanthine oxidase) | XO inhibitory activity (in words) (xanthine oxidase) | melting point
14 | O=C(/C=C/c1ccccc1)c1ccccc1 [Compound 18, chalcone] | > 100 µM | not displayed xanthine oxidase inhibitory activity | 
15 | CC(=O)Oc1ccc(C(=O)/C=C/c2ccc(OC(C)=O)c(OC(C)=O)c2)c(O)c1 [Compound 17, 3,4,4ʹ-triacetoxy-2ʹ-hydroxychalcone] | > 100 µM |  | 110 to 111 °C
